Experimental data: ChEMBL document CHEMBL2440076, “New triarylpyrazoles as broad-spectrum anticancer agents: design, synthesis, and biological evaluation” (Eur J Med Chem, 2013)

Columns and labels:
[1] = test system: MOLT-4; experiment: Growth inhibition of human MOLT4 cells after 48 hrs by sulforhodamine B assay; assay type: functional; settings: MOLT-4, 48 h; for CC50: read-out: LC50 (the source's name)
[2] = test system: SK-MEL-5; experiment: Growth inhibition of human SK-MEL-5 cells after 48 hrs by sulforhodamine B assay; assay type: functional; settings: SK-MEL-5, 48 h
[3] = test system: HL-60(TB); experiment: Growth inhibition of human HL-60(TB) cells assessed as cell growth at 10 uM after 48 hrs by sulforhodamine B assay; assay type: functional; settings: HL-60, 48 h, read-out: Activity
[4] = test system: NCI-H226; experiment: Growth inhibition of human NCI-H226 cells assessed as cell growth at 10 uM after 48 hrs by sulforhodamine B assay; assay type: functional; settings: NCI-H226, 48 h, read-out: Activity
[5] = test system: CCRF-CEM; experiment: Growth inhibition of human CCRF-CEM cells assessed as cell growth at 10 uM after 48 hrs by sulforhodamine B assay; assay type: functional; settings: read-out: Activity
[6] = test system: OVCAR-3; experiment: Growth inhibition of human OVCAR3 cells after 48 hrs by sulforhodamine B assay; assay type: functional, cell-based; settings: OVCAR-3, 48 h; for CC50: read-out: LC50 (the source's name)
[7] = test system: RPMI-8226; experiment: Growth inhibition of human RPMI8226 cells after 48 hrs by sulforhodamine B assay; assay type: functional, cell-based; settings: RPMI-8226, 48 h; for CC50: read-out: LC50 (the source's name)
[8] = test system: RXF 393; experiment: Growth inhibition of human RXF393 cells assessed as cell growth at 10 uM after 48 hrs by sulforhodamine B assay; assay type: functional; settings: RXF 393, 48 h, read-out: Activity
[9] = test system: HL-60(TB); experiment: Growth inhibition of human HL-60(TB) cells after 48 hrs by sulforhodamine B assay; assay type: functional; settings: HL-60, 48 h; for CC50: read-out: LC50 (the source's name)
[10] = test system: CAKI-1; experiment: Growth inhibition of human CAKI-1 cells assessed as cell growth at 10 uM after 48 hrs by sulforhodamine B assay; assay type: functional; settings: CAKI-1, 48 h, read-out: Activity
[11] = test system: TK-10; experiment: Growth inhibition of human TK10 cells after 48 hrs by sulforhodamine B assay; assay type: functional; settings: TK-10, 48 h; for CC50: read-out: LC50 (the source's name)
[12] = Growth inhibition of human NCI-ADR-RES cells after 48 hrs by sulforhodamine B assay; assay type: functional; settings: for CC50: read-out: LC50 (the source's name)
[13] = test system: UACC-257; experiment: Growth inhibition of human UACC257 cells assessed as cell growth at 10 uM after 48 hrs by sulforhodamine B assay; assay type: functional; settings: UACC-257, 48 h, read-out: Activity

| Structure (SMILES) | GI50 [1] [nM] | TGI [1] [nM] | CC50 [1] [nM] | GI50 [2] [nM] | LC50 (concentration killing 50% of cells) [2] [nM] | TGI [2] [nM] | growth at 10 µM [3] [%] | growth at 10 µM [4] [%] | growth at 10 µM [5] [%] | GI50 [6] [nM] | IC50 [6] [nM] | TGI [6] [nM] | CC50 [6] [nM] | GI50 [7] [nM] | IC50 [7] [nM] | TGI [7] [nM] | CC50 [7] [nM] | growth at 10 µM [8] [%] | growth at 10 µM [10] [%] | growth at 10 µM [13] [%] | other results |
| --- | --- | --- | --- | --- | --- | --- | --- | --- | --- | --- | --- | --- | --- | --- | --- | --- | --- | --- | --- | --- | --- |
| O=C(Nc1cccc(-n2cc(-c3ccncc3)c(-c3ccc(Cl)c(O)c3)n2)c1)Nc1cccc(C(F)(F)F)c1 | 1920 | > 32500 | > 32500 | 1300 | 13800 | 4710 | 12.5 | 35.1 | 10.6 | 1060 | 1060 | 6130 | > 32500 | 1340 | 1340 | > 32500 | > 32500 | 31.3 | 30.1 | -11.6 | GI50 [9]: 1450 nM; TGI [9]: > 32500 nM; CC50 [9]: > 32500 nM; GI50 [11]: 2120 nM; TGI [11]: > 32500 nM; CC50 [11]: > 32500 nM; GI50 [12]: 2140 nM; TGI [12]: > 32500 nM; CC50 [12]: > 32500 nM |
| COc1cc(-c2nn(-c3cccc(NC(=O)Nc4ccc(Cl)c(C(F)(F)F)c4)c3)cc2-c2ccncc2)ccc1Cl | 1020 | 7960 | > 32500 | 818 | 10400 | 2890 | -19.8 | 12.1 | -8.04 | 889 | 890 | 2440 | > 32500 | 868 | 870 | 3250 | > 32500 | -27.8 | 14.7 | -37.6 | GI50 [9]: 1170 nM; TGI [9]: > 32500 nM; CC50 [9]: > 32500 nM; GI50 [11]: 1520 nM; TGI [11]: 13500 nM; CC50 [11]: > 32500 nM; GI50 [12]: 1040 nM; TGI [12]: 7990 nM; CC50 [12]: > 32500 nM |
| COc1cc(-c2nn(-c3cccc(NC(=O)c4ccc(Cl)c(C(F)(F)F)c4)c3)cc2-c2ccncc2)ccc1Cl | 5240 | > 32500 | > 32500 | 1380 | 31800 | 6870 | 3.23 | 56.3 | 12.4 | 2420 | 2420 | 19800 | > 32500 | 1620 | 1620 | > 32500 | > 32500 | -0.4 | 61.1 | 23.5 | GI50 [9]: 5480 nM; TGI [9]: > 32500 nM; CC50 [9]: > 32500 nM; GI50 [11]: 20400 nM; TGI [11]: > 32500 nM; CC50 [11]: > 32500 nM; GI50 [12]: 1290 nM; TGI [12]: 11200 nM; CC50 [12]: > 32500 nM |
| COc1cc(-c2nn(-c3cccc(NC(=O)c4ccc(N5CCOCC5)c(C(F)(F)F)c4)c3)cc2-c2ccncc2)ccc1Cl | 669 | > 100000 | > 100000 | 112 | 7640 | 675 | -8.08 | 42.5 | 0.91 | 222 | 220 | 1030 | > 100000 | 339 | 340 | > 100000 | > 100000 | -45.2 | 39.9 | 24.3 | GI50 [9]: 298 nM; TGI [9]: > 100000 nM; CC50 [9]: > 100000 nM; GI50 [11]: 1490 nM; TGI [11]: 45300 nM; CC50 [11]: > 100000 nM; GI50 [12]: 228 nM; TGI [12]: > 100000 nM; CC50 [12]: > 100000 nM |
| Cc1cc(C(=O)Nc2cccc(-n3cc(-c4ccncc4)c(-c4ccc(Cl)c(O)c4)n3)c2)ccc1Br | – | – | – | – | – | – | 172 | 101 | 87.2 | – | – | – | – | – | – | – | – | 91 | 93.9 | 95.9 | – |
| O=C(Nc1cccc(-n2cc(-c3ccncc3)c(-c3ccc(Cl)c(O)c3)n2)c1)Nc1ccc(Cl)c(Cl)c1 | 1380 | > 32500 | > 32500 | 570 | 2350 | 1160 | -6.98 | 24.7 | 13.7 | 1050 | 1050 | 3150 | > 32500 | 1030 | 1030 | > 32500 | > 32500 | 4.46 | 22.5 | -17.3 | GI50 [9]: 515 nM; TGI [9]: > 32500 nM; CC50 [9]: > 32500 nM; GI50 [11]: 1910 nM; TGI [11]: > 32500 nM; CC50 [11]: > 32500 nM; GI50 [12]: 2740 nM; TGI [12]: > 32500 nM; CC50 [12]: > 32500 nM |
